Common to all, as to format: tissue-based
Assay [1] addresses 5-hydroxytryptamine receptor 2A (Rattus norvegicus, UniProt P14842). Briefly: Compound was evaluated for affinity towards cerebral 5-hydroxytryptamine 2A receptor in homogenate of caudate putamen tissue from rat brain.
Assay [2] addresses T1, 5-hydroxytryptamine receptor 2C (Rattus norvegicus, UniProt P08909).
T1 sequence (P08909 whole entry): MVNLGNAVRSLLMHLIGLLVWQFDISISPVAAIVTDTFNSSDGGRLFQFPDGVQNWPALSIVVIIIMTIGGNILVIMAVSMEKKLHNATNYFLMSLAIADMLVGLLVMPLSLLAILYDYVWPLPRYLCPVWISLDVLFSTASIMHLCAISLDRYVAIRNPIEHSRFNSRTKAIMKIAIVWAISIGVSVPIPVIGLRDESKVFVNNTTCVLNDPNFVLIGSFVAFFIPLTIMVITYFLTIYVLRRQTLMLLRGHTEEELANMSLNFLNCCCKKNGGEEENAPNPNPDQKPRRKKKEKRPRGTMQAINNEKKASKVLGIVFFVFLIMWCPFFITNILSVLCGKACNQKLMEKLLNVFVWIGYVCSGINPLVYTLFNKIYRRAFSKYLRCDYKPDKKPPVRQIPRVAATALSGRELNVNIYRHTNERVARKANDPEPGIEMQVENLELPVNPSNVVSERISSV
Briefly: Compound was evaluated for affinity towards cerebral 5-hydroxytryptamine 2C receptor in homogenate of caudate putamen tissue from rat brain.

For another assay, the target named is D(1A) dopamine receptor (Rattus norvegicus, UniProt P18901). Nature of the assay: Compound was evaluated for affinity towards dopamine D1-like receptor in homogenate of caudate putamen tissue from rat brain.

Each structure is given as a SMILES string.

Sequence of 5-hydroxytryptamine receptor 2A (P14842 whole entry): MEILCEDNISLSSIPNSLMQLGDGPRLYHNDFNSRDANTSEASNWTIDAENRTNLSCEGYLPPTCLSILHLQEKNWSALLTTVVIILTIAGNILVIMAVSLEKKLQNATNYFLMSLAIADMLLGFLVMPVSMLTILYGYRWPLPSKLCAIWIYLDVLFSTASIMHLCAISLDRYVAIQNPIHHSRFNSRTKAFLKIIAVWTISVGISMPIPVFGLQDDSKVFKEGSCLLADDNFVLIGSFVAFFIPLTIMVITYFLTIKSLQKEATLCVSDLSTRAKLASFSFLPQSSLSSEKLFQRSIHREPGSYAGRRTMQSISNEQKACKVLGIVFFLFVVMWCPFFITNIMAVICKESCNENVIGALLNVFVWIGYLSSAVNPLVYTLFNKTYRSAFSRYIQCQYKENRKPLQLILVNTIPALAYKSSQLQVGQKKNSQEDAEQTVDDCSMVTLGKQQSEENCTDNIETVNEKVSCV
Sequence of D(1A) dopamine receptor (P18901 whole entry): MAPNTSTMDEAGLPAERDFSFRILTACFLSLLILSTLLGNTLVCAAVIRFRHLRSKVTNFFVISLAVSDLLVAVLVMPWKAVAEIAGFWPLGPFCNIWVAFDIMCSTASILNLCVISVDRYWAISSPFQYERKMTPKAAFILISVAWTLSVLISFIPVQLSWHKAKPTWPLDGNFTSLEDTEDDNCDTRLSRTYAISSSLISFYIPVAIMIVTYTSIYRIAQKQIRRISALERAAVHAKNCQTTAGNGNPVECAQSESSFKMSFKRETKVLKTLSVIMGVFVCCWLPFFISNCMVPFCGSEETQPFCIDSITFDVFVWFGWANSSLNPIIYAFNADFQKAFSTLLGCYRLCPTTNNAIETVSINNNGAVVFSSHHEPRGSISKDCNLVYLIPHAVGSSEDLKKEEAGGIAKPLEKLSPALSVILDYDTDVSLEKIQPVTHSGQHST

As for `CN1CCc2cc(Cl)c(O)cc2C(c2cccc(Br)c2)C1` (stereo not drawn), the Ki came to 8.5 nM in assay [1], 2.08 nM in assay [2] and 0.26 nM at D(1A) dopamine receptor.

As to `CN1CCc2cc(Cl)c(O)cc2[C@@H](c2ccccc2)C1` [SCH-23390], the Ki was 10.8 nM in assay [1] and 12.5 nM in assay [2].

As to `CN1CCc2cc(Cl)c(O)cc2C(c2ccccc2Br)C1` (stereo not drawn), the Ki in assay [1] came to 22.1 nM; in assay [2], 11.8 nM; at D(1A) dopamine receptor it was 0.7 nM.

A word on the Ki: it is the dissociation constant of the complex between target and ligand, obtained from inhibition or displacement. A low value points to tighter binding.

For the origin of these results see ChEMBL document CHEMBL1132883, “Cyclopentadienyltricarbonylrheniumbenzazepines: synthesis and binding affinity” (Bioorg Med Chem Lett, 2000).
